Here are results for eight compounds from patent publication US20240317809A1, “Engineered Antimicrobial Peptides and Usage Thereof” (University of Pittsburgh-Of the Commonwealth System of …, priority 2021, published 2024).

Where “and” joins values, the source holds several entries; their conditions need not be identical. Equal values may be shown once. Peptide text beside a SMILES is read from it.

One data set deals with bacterial burden. In words: Survival study with rabbit PJI model. The format is in vivo. The conditions noted are these: for survival rates of rabbits as a function of days post-infection: observed up to 14 days (Group 4: 28 days). The procedure: In the following Examples 1-5, the administered WLBU-2 formulations were prepared as described in this paragraph. Exemplary pharmaceutical formulations comprising WLBU-2 were prepared at concentrations of 0.5 mg/mL and 1.0 mg/mL in vehicle (dPBS), by formulating under aseptic conditions. WLBU-2 was added while mixing to approximately 90% of volume with vehicle, and mixed until the solution was clear. The solution was adjusted to pH 7.4 using a 1% NaOH solution. dPBS was added quantity sufficient to final volume. The final pH of the solution was read and recorded.
This example illustrates the antibacterial activity an exemplary formulation of WLBU-2, beta lactam antibiotic, and in combination in reducing CFU in vivo with varying concentrations and time of exposure.
A bone tunnel in the tibial canal was created using a drill with a 1.2 mm or 1.6 mm tungsten carbide drill bit. The bone tunnel was then dried and treated to simulate acute human PJI following primary arthroplasty. A Kirschner wire implant was placed in the bone tunnel and the wound closed. Prior to closure of the superficial skin layer, 0.1 mL of 2×10^6 planktonic bacteria (CFU/rabbit) in saline was injected into the joint space. A closure was performed, and a biofilm was allowed to become established over a period of 2 days.
In each group, the joint space was reopened and treated with I&D at 2 days post-infection. Group 1 received neither cefazolin nor WLBU-2. Group 2 received cefazolin but not WLBU-2. Group 3 received WLBU-2 but not the cefazolin. Group 4 received both cefazolin and WLBU-2 treatment. Where applicable, cefazolin was delivered subcutaneously at 10 mg/kg BID for 5 days. Where applicable, WLBU-2 was delivered with 2 ml of WLBU-2 at 1 mg/ml with exposure of 15 minutes. […] When an animal was sick or needed to be euthanized, the implant and a part of the tibia was collected postmortem and CFU analysis was performed. All surviving animals (except for Group 4) were euthanized on day 14 and the implant and tibia were collected most mortem.

A further data set has as its system S. aureus. In words: MIC, CLSI protocol, planktonic ESKAPE pathogens. The format is cell-based, Staphylococcus aureus. The conditions noted are these: N=4. Here is the method: (§1) Standard Clinical and Laboratory Standards Institute (CLSI) protocol was used to measure the minimum inhibitory concentration (MIC) against each organism. Biofilm model: Implant material was prepared from 0.6 mm diameter stainless steel Kirschner wire and plated at 0.5×10^6 CFU/ml. Mature biofilm developed over 48 hours, wires were washed, and then treated with 1 mg/mL WLBU-2 (SEQ ID: 10) in PBS (pH 7.4) for 5, 15, and 30 minutes. Quantitative culture (colony forming unit, CFU) analysis was then completed.
(§2) ESKAPE pathogens were selected from a large clinical library of MDR and non-MDR organisms (n>100 organism). […] At 15 minutes, organisms had greater than a 3 log reduction in biofilm mass (E. faecium: 3 log 10; S. aureus: 5 log 10; K. pneumoniae 6 log 10; A. baumannii 5 log 10; P. aeruginosa 8 log 10; E. cloacae 7 log 10; E. coli 5 log 10).

For data set [1], the system named is gram-positive and gram-negative bacteria on infected prostheses. In words: Human patient knee explant study (Example 5), ex vivo CFU analysis, all implants. The format is cell-based. As to conditions: 1 mg/mL in dPBS pH 7.4, 15 minutes; vs untreated implant of same patient. The procedure:
(§3) Patients diagnosed with chronic PJI were prospectively enrolled (n=17). All patients met the diagnosis of PJI as defined by the 2018 International Consensus Meeting criteria. The implant was first washed with 50 ml Dulbecco's PBS (dPBS) and submerged ex vivo in an expected clinical exposure of 1 mg/mL WLBU-2 (SEQ ID: 10) in Dulbecco's PBS (dPBS) adjusted to pH 7.4 for 15 minutes. After treatment, the sample was washed with 50 mL of dPBS and sonicated in PBS containing 1% Tween 20 for 5 minutes. After sonication, 100 microliters of the implant sonication fluid was serially diluted, and plated for quantitative culture (CFU analysis). The remaining explanted implant from the same patient served as a control and was processed similarly but without exposure to WLBU-2 (SEQ ID: 10).

Data set [2] relates to E. coli. In words: Human patient knee explant study (Example 5), ex vivo CFU analysis. As to conditions: treated vs untreated explant of same patient, 1 mg/mL, 15 minutes. It counts as cell-based. Here is the method:
as §3

The test system of a further data set is E. faecalis. The data set is described as above. The format is cell-based. As to conditions: treated vs untreated explant of same patient, 1 mg/mL, 15 minutes. The procedure:
as §3

Data set [3] relates to Haemophilus parainfluenzae. The data set is described as above. The format is cell-based. As to conditions: treated vs untreated explant of same patient, 1 mg/mL, 15 minutes. The procedure:
as §3

The subject of the next data set is S. aureus (MRSA). The data set is described as above. The format is cell-based. As to conditions: treated vs untreated explant of same patient, 1 mg/mL, 15 minutes. The procedure: as §3
The test system of the next data set is S. aureus (MSSA). Described as above. The format is cell-based. The conditions noted are these: treated vs untreated explant of same patient, 1 mg/mL, 15 minutes. Here is the method: as §3
A further data set has as its system S. caprae. The data set is described as above. As to conditions: treated vs untreated explant of same patient, 1 mg/mL, 15 minutes. The format is cell-based. Here is the method:
as §3

The next data set deals with S. dysgalactiae. Described as above. The format is cell-based. The conditions noted are these: treated vs untreated explant of same patient, 1 mg/mL, 15 minutes. Here is the method: as §3
The next data set has as its system S. hemolyticus. The description is as above. The format is cell-based. As to conditions: treated vs untreated explant of same patient, 1 mg/mL, 15 minutes. Here is the method:
as §3

Data set [4] can be described thus: Local or systemic toxicity in animal models. The format is in vivo.
For the next data set, the system named is K. pneumoniae. In words: MIC, CLSI protocol, planktonic ESKAPE pathogens. The format is cell-based, Klebsiella pneumoniae. The conditions noted are these: N=8. Here is the method: as §1, §2
A further data set concerns P. aeruginosa. In words: MIC, CLSI protocol, planktonic ESKAPE pathogens. The conditions noted are these: N=20. The format is cell-based, Pseudomonas aeruginosa. Here is the method:
as §1, §2

The next data set has as its system E. cloacae. In words: MIC, CLSI protocol, planktonic ESKAPE pathogens. It counts as cell-based. The conditions noted are these: N=2. Here is the method: as §1, §2
The subject of data set [5] is E. coli. In words: MIC, CLSI protocol, planktonic ESKAPE pathogens. It counts as cell-based. As to conditions: N=8. Here is the method: as §1, §2
A further data set deals with A. baumannii. In words: MIC, CLSI protocol, planktonic ESKAPE pathogens. The format is cell-based, Acinetobacter baumannii. As to conditions: N=24. The procedure: as §1, §2
Where [6] appears, read: cefazolin 10 mg/kg sc BID 5 days and/or WLBU-2 2 ml at 1 mg/ml 15 minutes, vs untreated Group 1.
[7] abbreviates: cefazolin 10 mg/kg sc BID 5 days and/or WLBU-2 2 ml at 1 mg/ml 15 minutes, vs untreated Group 1, listed as cefazolin.

For the compound `Cc1nnc(SCC2=C(C(=O)O)N3C(=O)[C@@H](NC(=O)Cn4cnnn4)[C@H]3SC2)s1` [Cefazolin], in the data set on bacterial burden (I&D 2 days post-infection, cefazolin 10 mg/kg sc BID 5 days and/or WLBU-2 2 ml at 1 mg/ml 15 minutes), the “body weight as a function of days post infection” value is recorded as “No significance”. In addition, in the data set with bacterial burden (setting [6]), the “bacterial burden of collected implants (CFU analysis), reduction” value is recorded as “significantly lower bacterial burden”; the “bacterial burden of collected tibia (bone CFU analysis), reduction” value is 2.6 log; the “total CFU (implant and bone), reduction in total bacterial burden” value is on record as “Significant reductions in total bacterial burden”. Further, in the data set with bacterial burden (setting [7]), the “bacterial burden of collected tibia (bone CFU analysis), reduction” value is “significantly lower bacterial burden”; the “total CFU (implant and bone), reduction in total bacterial burden” value is reported as “significantly lower bacterial burden”. For the same compound, the “survival rates of rabbits as a function of days post-infection” value in the data set with bacterial burden (vs untreated Group 1) is listed as “improved survival in comparison to Group 1”. For the same compound, in the data set on bacterial burden (vs untreated Group 1, listed as cefazolin), the “survival rates of rabbits as a function of days post-infection” value was “second-best survival rates”.

On to `C[C@H]1COc2c(N3CCN(C)CC3)c(F)cc3c(=O)c(C(=O)O)cn1c23` [LVX, levofloxacin], for which the “minimum inhibitory concentration (MIC)” value with S. aureus is on record as “.015-.03”.

Take `CC(C)[C@H](NC(=O)[C@H](Cc1c[nH]c2ccccc12)NC(=O)[C@H](CCCNC(=N)N)NC(=O)[C@H](CCCNC(=N)N)NC(=O)[C@@H](NC(=O)[C@@H](NC(=O)[C@H](CCCNC(=N)N)NC(=O)[C@@H](NC(=O)[C@@H](NC(=O)[C@H](CCCNC(=N)N)NC(=O)[C@H](CCCNC(=N)N)NC(=O)[C@H](Cc1c[nH]c2ccccc12)NC(=O)[C@@H](NC(=O)[C@H](CCCNC(=N)N)NC(=O)[C@H](CCCNC(=N)N)NC(=O)[C@@H](NC(=O)[C@H](CCCNC(=N)N)NC(=O)[C@H](CCCNC(=N)N)NC(=O)[C@@H](NC(=O)[C@H](Cc1c[nH]c2ccccc12)NC(=O)[C@H](CCCNC(=N)N)NC(=O)[C@@H](N)CCCNC(=N)N)C(C)C)C(C)C)C(C)C)C(C)C)C(C)C)C(C)C)C(C)C)C(=O)N[C@@H](CCCNC(=N)N)C(=O)N[C@@H](CCCNC(=N)N)C(=O)O` [WLBU-2, RRWVRRVRRVWRRVVRVVRRWVRR] (H-RRWVRRVRRVWRRVVRVVRRWVRR-OH): the mean log reduction in [1] is 6 log. Moreover, the “range of log reduction” value in data set [1] is listed as 2-7.70 log. Also, the Log reduction is 6.2 and 5.9 with E. coli [2]; 6.7 in the data set on E. faecalis; 7.7 in [3]; 7.7 in the data set on S. aureus (MRSA); 3.6 with S. aureus (MSSA); 7.7 in the data set on S. caprae. In addition, the Log reduction was determined as 4.0 in the data set on S. dysgalactiae and 2.9 in the data set on S. hemolyticus. Moreover, the “toxicity to local tissue” value in [4] (1 mg/mL for 15 minutes, murine and rabbit PJI animal models) is reported as “non-toxic to local tissue”. Moreover, in [4] (therapeutic range of dosing in animal models), the “local or systemic toxicity” value is recorded as “does not have significant local or systemic toxicity”.

For colistin, the “minimum inhibitory concentration (MIC)” value in the data set on K. pneumoniae is on record as “.06-16”; in the data set with P. aeruginosa, “.12-2^”; in the data set with E. cloacae, “.06-.25”; in the data set on E. coli [5], “.06-.25”.

Turning to `CC(=O)NC[C@H]1CN(c2ccc(N3CCOCC3)c(F)c2)C(=O)O1` [LZD, linezolid], the “minimum inhibitory concentration (MIC)” value in the data set with S. aureus stood at 4.

For `CN(C)c1cc(NC(=O)CNC(C)(C)C)c(O)c2c1C[C@H]1C[C@H]3[C@H](N(C)C)C(O)=C(C(N)=O)C(=O)[C@@]3(O)C(O)=C1C2=O` [TIG, tigecycline], the “minimum inhibitory concentration (MIC)” value in the data set on K. pneumoniae is reported as 0.5-2; in the data set on A. baumannii it was 1-16; in the data set on E. cloacae it was 0.5-2; with E. coli [5] it was “.25-0.5”.

Take `C[C@@H](O)[C@H]1C(=O)N2C(C(=O)O)=C(SCCN=CN)C[C@H]12` [IPM, imipenem]: the “minimum inhibitory concentration (MIC)” value is on record as “.015-.03” with S. aureus and 0.25 in the data set with E. cloacae.

As to `CN[C@H](CC(C)C)C(=O)N[C@H]1C(=O)N[C@@H](CC(N)=O)C(=O)N[C@H]2C(=O)N[C@H]3C(=O)N[C@H](C(=O)N[C@H](C(=O)O)c4cc(O)cc(O)c4-c4cc3ccc4O)[C@H](O)c3ccc(c(Cl)c3)Oc3cc2cc(c3O[C@@H]2O[C@H](CO)[C@@H](O)[C@H](O)[C@H]2O[C@H]2C[C@](C)(N)[C@H](O)[C@H](C)O2)Oc2ccc(cc2Cl)[C@H]1O` [VAN, vancomycin], the “minimum inhibitory concentration (MIC)” value in the data set on S. aureus came out at 1.
